Target: Xanthine dehydrogenase/oxidase (Homo sapiens, UniProt P47989)
Assay: xanthine oxidase activity: Xanthine oxidase inhibition was determined using a standard fluorescence-based assay for xanthine oxidase activity (McHale A, Grimes H, Coughlan M P: Int J Biochem. 10:317-9, 1979) with minor variations. […] Experiments on test compounds were performed in triplicate in multi-well plates using 10 concentrations of each compound that ranged over a 3-fold dilution.

Xanthine dehydrogenase/oxidase, sequence (P47989 whole entry): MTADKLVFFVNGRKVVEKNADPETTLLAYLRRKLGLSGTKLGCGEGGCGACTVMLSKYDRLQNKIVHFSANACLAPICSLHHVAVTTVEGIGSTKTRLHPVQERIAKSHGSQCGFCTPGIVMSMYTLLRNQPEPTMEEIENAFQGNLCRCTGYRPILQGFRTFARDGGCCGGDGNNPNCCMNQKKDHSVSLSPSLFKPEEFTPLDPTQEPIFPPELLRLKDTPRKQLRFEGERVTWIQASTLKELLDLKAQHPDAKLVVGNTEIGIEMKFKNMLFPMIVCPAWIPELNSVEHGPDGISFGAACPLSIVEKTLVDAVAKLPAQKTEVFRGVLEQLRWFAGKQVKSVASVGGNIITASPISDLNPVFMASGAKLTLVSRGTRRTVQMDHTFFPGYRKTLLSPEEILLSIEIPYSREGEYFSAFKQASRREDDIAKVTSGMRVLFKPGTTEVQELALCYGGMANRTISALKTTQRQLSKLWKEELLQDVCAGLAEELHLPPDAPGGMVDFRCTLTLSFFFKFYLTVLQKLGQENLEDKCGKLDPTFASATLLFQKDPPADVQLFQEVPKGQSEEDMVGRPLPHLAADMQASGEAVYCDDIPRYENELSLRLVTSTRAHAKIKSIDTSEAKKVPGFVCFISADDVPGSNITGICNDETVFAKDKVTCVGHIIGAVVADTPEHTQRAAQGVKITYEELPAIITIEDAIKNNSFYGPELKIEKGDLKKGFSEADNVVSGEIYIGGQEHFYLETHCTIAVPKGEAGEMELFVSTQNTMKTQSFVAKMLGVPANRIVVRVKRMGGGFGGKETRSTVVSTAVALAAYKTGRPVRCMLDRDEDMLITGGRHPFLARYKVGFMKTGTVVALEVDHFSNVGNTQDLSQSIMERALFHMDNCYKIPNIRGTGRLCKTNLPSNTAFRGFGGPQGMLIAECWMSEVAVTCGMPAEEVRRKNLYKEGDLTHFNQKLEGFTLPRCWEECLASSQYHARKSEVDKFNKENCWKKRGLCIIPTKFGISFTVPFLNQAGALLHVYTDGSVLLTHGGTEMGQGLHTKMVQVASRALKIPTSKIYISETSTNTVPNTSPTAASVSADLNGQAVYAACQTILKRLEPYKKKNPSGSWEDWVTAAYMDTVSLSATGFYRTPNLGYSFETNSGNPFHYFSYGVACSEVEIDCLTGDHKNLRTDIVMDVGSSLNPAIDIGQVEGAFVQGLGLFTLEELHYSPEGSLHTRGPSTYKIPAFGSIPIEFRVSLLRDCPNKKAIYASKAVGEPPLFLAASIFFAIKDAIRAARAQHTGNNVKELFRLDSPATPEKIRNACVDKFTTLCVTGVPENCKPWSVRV

SMILES: O=C(O)CSc1nnc(Br)n1-c1ccc(C2CC2)c2ccccc12
- IC50: > 300 µM

From ChEMBL document CHEMBL5725750, “Bifunctional compounds and use for reducing uric acid levels” (2018)
